In publication PMC10645073, “Interaction of gallium, indium and vanadyl diacetylcurcumin complexes with lysozyme: mechanistic aspects and evaluation of antiamyloidogenic activity” (Royal Society Open Science, 2023):

Legend:
[1] = target: T1, hen egg white lysozyme (HEWL) (Gallus gallus, UniProt P00698); test: Förster resonance energy transfer (FRET) binding distance, HEWL donor / metal complex acceptor
T1 construct: whose 129 amino acid residues are linked together by four disulfide bridges to form a single polypeptide chain; purchased Sigma-Aldrich L6876; host or cells: hen egg white (natural source, per the protein's name)
Excerpt: Förster resonance energy transfer (FRET) is a sensitive fluorescence-based approach that acts as a spectroscopic ruler to determine the binding distances within 1–10 nm between interacting molecules. Owing to the good overlap between the emission fluorescence spectrum of HEWL, as donor molecule, and the absorption spectra of three metal complexes of diacetylcurcumin, as acceptor molecules (electronic supplementary material, figure S4), the FRET method was used to obtain distance-dependent information of the donor-acceptor pairs. According to Förster's non-radiative energy transfer theory, the value of energy transfer efficiency, E, can be measured using the following equation:3.5 E=1−F/F0=R06/R06+r^6, where R0 and r represent the critical energy transfer distance and distance between donor and acceptor, respectively. The R0 parameter, the distance for 50% energy transfer, can be also calculated by the following equation:3.6 R06=8.79 × 10^−25[K^2n^−4ϕJ(λ)],
where K^2 is the relative orientation of the donor and acceptor (equal to 2/3 for a random orientation), n denotes the average refractive index of the medium (equal to 1.33), and φ represents the fluorescence quantum yield of the donor (equal to 0.15). […] Therefore, it can be concluded that a non-radiative energy transfer process contributes to the fluorescence quenching of HEWL by the metal complexes of diacetylcurcumin. […]

[2] = target: T1, hen egg white lysozyme (HEWL); test: Synchronous fluorescence spectroscopy of HEWL; assay type: binding; details: Δλ = 60 nm
Protocol: To obtain synchronous fluorescence spectra, simultaneous scanning of excitation and emission monochromators was performed in such a way as to maintain a constant wavelength interval between them. The changes in the molecular microenvironment of tyrosine and tryptophan residues of HEWL were monitored by fixing the wavelength interval (Δλ = λem − λex) individually at 15 and 60 nm, respectively. The concentrations of HEWL and three metal complexes of diacetylcurcumin were the same as those mentioned for the intrinsic fluorescence spectroscopy.
To investigate the effect of the metal complexes of diacetylcurcumin on the conformation of tyrosine and tryptophan residues of HEWL, synchronous fluorescence spectra of HEWL were recorded alone and in the presence of the metal complexes (electronic supplementary material, figure S5). By fixing the Δλ value, i.e. the difference between excitation and emission wavelengths, at 15 and 60 nm, synchronous fluorescence spectroscopy provides useful information on the microenvironmental changes of tyrosine and tryptophan residues of proteins, respectively. As shown in the electronic supplementary material, figure S5, all three metal complexes of diacetylcurcumin strongly quench the emission fluorescence of HEWL at both 15 and 60 nm. […] At Δλ = 15 nm, no shift in the emission maximum of HEWL is observed, whereas at Δλ = 60 nm, a 2 nm blue shift is observed in the emission spectrum of tryptophan residues of the protein after the interaction with the metal complexes of diacetylcurcumin except for the VO(DAC)2 complex. […] Overall, it can be concluded that the formation of HEWL/metal complex bioconjugates is associated with the binding of three metal complexes of diacetylcurcumin to both tyrosine and tryptophan residues in which the conformational changes can occur only around the tryptophan residues of the protein. It should be noted that the reduction in the polarity of the microregions surrounding tryptophan residues of the protein has already been observed by the intrinsic emission fluorescence titrations (see §3.1.1.).

binding distance r between donor and acceptor [1] | energy transfer value (E) [1] [%] | microenvironment of tryptophan residues of HEWL [2] | Compound
least value of the binding distance | 18 | more hydrophobic | COc1cc(C=CC(=O)C=C([O-])C=Cc2ccc(OC(C)=O)c(OC)c2)ccc1OC(C)=O.COc1cc(C=CC(=O)C=C([O-])C=Cc2ccc(OC(C)=O)c(OC)c2)ccc1OC(C)=O.COc1cc(C=CC(=O)C=C([O-])C=Cc2ccc(OC(C)=O)c(OC)c2)ccc1OC(C)=O.[In+3] [In(DAC)3, indium diacetylcurcumin]
– | – | remains unaffected | COc1cc(/C=C/C(=O)C=C([O-])/C=C/c2ccc(OC(C)=O)c(OC)c2)ccc1OC(C)=O.COc1cc(/C=C/C(=O)C=C([O-])/C=C/c2ccc(OC(C)=O)c(OC)c2)ccc1OC(C)=O.[O]=[V+2] [VO(DAC)2, vanadyl diacetylcurcumin]
